The results in this text go back to patent publication US9695462B2, “Method for evaluation of drug efficacy of a medicine having a therapeutic or preventive effect against a disease related to EL activity and a method for screening an inhibitor of EL activity” (SHIONOGI & CO., LTD., priority 2012, dated 2017).

Structures are written as SMILES.

The target in the test is T1, mouse EL (Mus musculus, UniProt Q9WVG5).
T1 construct: made in house; host or cells: Freestyle 293F cells (pcDNA-DEST40 vector)
T1 sequence (Q9WVG5 21-500): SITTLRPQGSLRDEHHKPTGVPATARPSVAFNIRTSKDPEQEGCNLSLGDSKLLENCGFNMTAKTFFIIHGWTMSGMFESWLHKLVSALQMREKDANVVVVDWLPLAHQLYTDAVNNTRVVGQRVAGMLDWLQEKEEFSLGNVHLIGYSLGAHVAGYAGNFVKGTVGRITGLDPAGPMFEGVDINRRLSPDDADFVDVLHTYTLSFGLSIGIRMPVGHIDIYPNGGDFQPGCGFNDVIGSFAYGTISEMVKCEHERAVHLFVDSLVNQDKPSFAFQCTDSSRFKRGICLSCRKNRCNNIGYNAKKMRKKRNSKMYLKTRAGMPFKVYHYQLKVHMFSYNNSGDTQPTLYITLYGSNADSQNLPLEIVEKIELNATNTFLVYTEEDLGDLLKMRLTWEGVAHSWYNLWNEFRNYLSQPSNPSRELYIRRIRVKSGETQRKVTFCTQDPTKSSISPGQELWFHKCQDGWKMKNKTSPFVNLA
The experiment in a line: Inhibition of mouse EL activity using phosphatidylinositol-HDL as a substrate (NEFA production). The format is biochemical. The note with it: 37° C. for 2 hr, FIG. 5. The protocol:
Phosphatidylinositol (Avanti Polar Lipids Inc.) in chloroform was collected the necessary amount, which was completely evaporated the solvent to dryness under nitrogen. After addition of PBS, phosphatidylinositol-HDL induced phosphatidylinositol (2.5 mg/ml) into HDL (5 mg/ml) was prepared by mixing phosphatidylinositol vesicle prepared by sonication on ice with human HDL (Athens Research & Technology, Inc.) and incubating at 4° C. for 24 hr. The pcDNA-DEST40 (Invitrogen Corp.) cloned DNA encoding mouse EL was transfected into Freestyle 293F cells and the cells were cultured at 37° C. for 2 days in an atmosphere of 8% CO2. The cells were collected by centrifugation of the culture medium, suspended in Freestyle 293 Expression Medium (Invitrogen Corp.) containing 20 U/ml heparin and incubated at 37° C. for 45 min. After that, the supernatant obtained by removing the cells by centrifugation was used as mouse EL enzyme solution. […] After reaction at 37° C. for 2 hr, the amount of NEFA produced from substrate by EL was measured with NEFA C-test Wako (Wako Pure Chemical Industries, Ltd.) and the amount of NEFA (absorbance) was assumed an index of enzyme activity. The enzyme activity was calculated by subtracting the background value equivalent to the amount of endogenous NEFA without mouse EL enzyme solution from the value measured in enzyme reaction of EL (FIG. 4).

Take `CCCCCCCCCCC[C@@H](C[C@@H]1OC(=O)[C@H]1CCCCCC)OC(=O)[C@H](CC(C)C)NC=O` [orlistat]: the “inhibitory activity against mouse EL (inhibition rate)” value was “dose-dependent inhibition”.
